Data taken from article PMC3503319 (Biochemistry, 2010).

Target: Mtb DTBS (BioD) (Mycobacterium tuberculosis, UniProt P9WPQ5)
Sequence (P9WPQ5 whole entry): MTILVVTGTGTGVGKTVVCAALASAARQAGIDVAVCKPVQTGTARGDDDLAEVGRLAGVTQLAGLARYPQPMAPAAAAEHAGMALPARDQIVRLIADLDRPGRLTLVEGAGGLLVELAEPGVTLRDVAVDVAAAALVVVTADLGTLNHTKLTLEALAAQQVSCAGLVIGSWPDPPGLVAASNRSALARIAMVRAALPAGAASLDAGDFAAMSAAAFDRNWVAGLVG

C[C@H](N)[C@@H](CCCCCC(=O)O)NC(=O)O [DAPA-carbamate]
X-ray crystal structure, 2.05 Å (crystal soaked in 10 mM DAPA): additional electron density attached to the N7 atom of DAPA that fits the carbon dioxide
